Data: BigSolDB 2.1

CC(=O)N1CCN(c2ccc(OC[C@@H]3CO[C@@](Cn4ccnc4)(c4ccc(Cl)cc4Cl)O3)cc2)CC1 (racemic)
solubility (mole fraction) (in n-propanol, 293.2 K): 0.0056
solubility (mole fraction) (in n-propanol, 298.2 K): 0.00703
solubility (mole fraction) (in n-propanol, 303.2 K): 0.00948
solubility (mole fraction) (in n-propanol, 308.2 K): 0.0128
solubility (mole fraction) (in n-propanol, 313.2 K): 0.0175
solubility (mole fraction) (in water, 293.2 K): 3.8e-07
solubility (mole fraction) (in water, 298.2 K): 4.25e-07
solubility (mole fraction) (in water, 303.2 K): 4.46e-07
solubility (mole fraction) (in water, 308.2 K): 4.8e-07
solubility (mole fraction) (in water, 313.2 K): 5.11e-07
